Converted amounts (≈) assume the structure as drawn. Read-outs that look alike come from different tables or passages of the source.
Columns and labels:
[1] = system: Aerobic Bacterial Biofilms (oil field isolate); assay: Log reduction of sessile aerobic bacteria in biofilm on stainless steel penicylinders (Example 1, Procedure A); format: cell-based, predominantly Pseudomonas species; conditions: for log reduction at 5 ppm / log reduction at 10 ppm / log reduction at 25 ppm: Pseudomonas, 5.1 represents complete kill
Method: (§1) Approximately 20 ml of sterile Bacto TGE broth (Difco Labs) were placed in a sterile Petri dish (15×100 mm). To this media, 10 ml of a 24 hour culture of the aerobic organisms to be tested were added. Sterile, stainless steel penicylinders (10 mm O.D., 7 mm I.D., 10 mm long) were then placed in the inoculated media. The cylinders were placed in the dish either on-end or on-side. The Petri dish containing the cylinders was then incubated at 37° C. for 48 hours. At that time, cylinders were individually removed aseptically using forceps, blotted on sterile filter paper, and washed three times by dipping in sterile saline solution. This procedure was used to ensure that only organisms that were firmly attached in the biofilm were tested.
(§2) Two biofilm-coated cylinders were then carefully dropped into separate 10 ml test tubes containing biocide solutions of varying concentrations. After one hour and four hour contact times, a cylinder was aseptically transferred to a fresh tube of TGE broth and vortexed for 30 seconds to remove all sessile organisms. The resulting broth suspension was then serially diluted and plated using TGE agar for enumeration. Plates were incubated for 48 hours at 37° C. before counting.
(§3) To minimize error, all biocide concentration/contact time points reported below were tested in duplicate and the results averaged. Results are reported as log reduction of microorganisms compared to control cylinders treated in the same manner except that no biocide was employed.
An oil field isolate of aerobic bacteria was utilized in all aerobic biofilm experiments. This culture was taken from a water-flooded oil well in Texas and was tentatively identified as containing predominantly Pseudomonas species. The biofilms were developed following above Procedure A. Respective samples were treated with various concentrations of the biocides listed below and the number of bacteria were counted after one hour and four hours of contact.

[2] = system: Aerobic Bacterial Biofilms; assay: Log reduction of sessile microorganisms in aerobic biofilm (Example 2, Procedure A); format: cell-based, predominantly Pseudomonas species; conditions: for log reduction at 50 ppm / log reduction at 100 ppm / log reduction at 200 ppm: Pseudomonas, 7.4 represents complete kill
Method: as §1, §2, §3
Respective samples of the five compounds were tested against the sessile microorganisms embedded in biofilms. The biofilm was comprised of a variety of microorganisms, but contained predominantly Pseudomonas species cultivated using Procedure A. The number of organisms were counted after one hour and four hours of contact.

[3] = system: Sessile Anaerobic Bacterial Biofilms (SRB); assay: Log reduction of sessile sulfate-reducing bacteria in biofilm on mild steel penicylinders (Example 3, Procedure B); format: cell-based; conditions: for log reduction at 10 ppm / log reduction at 25 ppm / log reduction at 50 ppm: 4 represents complete kill
Method: SRB-containing media were prepared as follows:
14.5 g of Bacto Sulfate API Broth (Difco Labs) and 2.0 g Bacto Agar (Difco Labs) were added to 1000 ml distilled water. The solution was heated and stirred until all components were dissolved. A 1% solution of sodium thioglycollate in distilled water was also prepared. Both solutions were then autoclaved at 121° C. for 30 minutes. After cooling, 5 g of the sodium thioglycollate solution was added to the media mixture.
Mild steel penicylinders (10 mm O.D., 7 mm I.D., 10 mm long) were cleaned by soaking for 10 minutes in 0.5% hydrochloric acid. Cylinders were then rinsed three times with distilled water and dried before use.
A 4 oz screw-capped bottle was purged with argon to remove oxygen, capped and then autoclaved. After cooling, 100 ml of sterile SRB media was added to this bottle. Cleaned penicylinders were then added along with 10 ml of a five day old SRB culture. All operations were conducted under a constant stream of argon to minimize oxygen levels. The bottle was then incubated for 7-14 days (depending on the SRB used) at 37° C. At that time, cylinders were individually removed aseptically using forceps and blotted on sterile filter paper.
Two biofilm-coated cylinders were then carefully dropped into separate 10 ml test tubes of deaerated biocide solutions of varying concentrations. All of the biocide and control solutions contained 30 ppm of a non-ionic nonyl phenol ethoxylate surfactant (TERGITOL® NP-4, Union Carbide Chemicals and Plastics Company Inc., Danbury, CT). After one hour and four hour contact times, a cylinder was removed, blotted on sterile filter paper, and placed into a commercially available SRB vial (C&S Laboratories, Tulsa, OK). The vial was then sonicated (Bransonic Model 12) for 30 seconds to remove sessile organisms. The resulting solution was serially diluted into additional SRB vials for enumeration. Vials were grown for 28 days at 37° C. before reading. Blackening of the vials was used as an indication of growth.
as §3
A SRB culture was obtained from a water-flooded oil well in Alaska. The bacteria were then cultivated on the walls of the steel penicylinders using Procedure B described above. Respective samples were then contacted with glutaraldehyde, formaldehyde or OPA for one and four hours with the following results: […]

[4] = system: Planktonic Anaerobic Bacteria (SRB); assay: Log reduction of planktonic sulfate-reducing bacteria (Example 4, Procedure C); format: cell-based
Method: A stock culture of the SRB to be tested was grown in a commercial SRB vial for 4 days at 37° C. The vial was then purged for approximately 30 seconds with argon to remove excess hydrogen sulfide. At that time a series of SRB vials were each inoculated with 0.1 ml of this stock culture. These vials were then incubated at 37° C. for 4 days. Each of these vials was then purged with argon. Appropriate stock solutions of biocide were prepared so that additions of 0.1-1.0 ml provided the desired concentration of biocide in each SRB vial. After 1 hour and 4 hour contact times, 1 ml aliquots were removed from each vial and were injected into fresh SRB vials. These vials were then serially diluted for enumeration.
as §3
The same sample of planktonic SRB as used in Example 3 was cultivated following above Procedure C. Respective samples of bacteria were treated with varying concentrations of OPA and the log reduction in the number of bacteria was recorded in each case.

[5] = Solubility in water; format: physicochemical; conditions: 25° C., read-out: limit of solubility in water
[6] = system: S. aureus; conditions: planktonic; cited from earlier work
[7] = system: P. aerug.; conditions: planktonic; cited from earlier work
[8] = system: P. vulg.; conditions: planktonic; cited from earlier work
[9] = system: K. pneum.; conditions: planktonic; cited from earlier work
[10] = system: C. albic.; conditions: planktonic; cited from earlier work
[11] = 1 hr contact, read-out: log reduction after 1 hr
[12] = 4 hr contact, read-out: log reduction after 4 hr

**Q.** What does the source list for `O=Cc1ccccc1C=O` [OPA, ortho-phthalaldehyde]?
**A.** log reduction at 5 ppm [1, 11]: 0.8; log reduction at 5 ppm [1, 12]: 5.1; log reduction at 10 ppm [1, 11]: 1.4; log reduction at 10 ppm [1, 12]: 5.1; log reduction at 25 ppm [1, 11]: 5.1; log reduction at 25 ppm [1, 12]: 5.1; effectiveness versus glutaraldehyde and formaldehyde ([1]; aerobic biofilm, Example 1): outperformed both glutaraldehyde and formaldehyde; log reduction at 50 ppm [2, 11]: 2.9; log reduction at 50 ppm [2, 12]: 7.4; log reduction at 100 ppm [2, 11]: 3.4; log reduction at 100 ppm [2, 12]: 7.4; log reduction at 200 ppm [2, 11]: 6; log reduction at 200 ppm [2, 12]: 7.4; effectiveness against sessile microorganisms in biofilms versus other aldehydes ([2]; other aldehydes at four times the concentration of OPA): surprising effectiveness; log reduction at 10 ppm [3, 11]: 3; log reduction at 10 ppm [3, 12]: 4; log reduction at 25 ppm [3, 11]: 3; log reduction at 25 ppm [3, 12]: 4; log reduction at 50 ppm [3, 11]: 4; log reduction at 50 ppm [3, 12]: 4; MBC ([3]; Example 3, read-out: OPA concentrations at which a complete kill of sessile microorganisms occurred (as low as)): 10 to 50 µg/mL (≈ 74.6 to 373 µM); MBC ([3]; within 4 hours, read-out: concentration that completely kills all sessile anaerobic organisms in the biofilm): 10 µg/mL (≈ 74.6 µM); log reduction at 100 ppm ([4]; 1 hr contact, 4 represents complete kill, read-out: log reduction after 1 hr): 0; log reduction at 100 ppm ([4]; 4 hr contact, 4 represents complete kill, read-out: log reduction after 4 hr): 0; log reduction at 500 ppm ([4]; 500 ppm, 1 hr contact, 4 represents complete kill, read-out: log reduction after 1 hr): 2 to 3; log reduction at 250 ppm ([4]; 1 h, read-out: log reduction after 1 hr): 1; log reduction at 250 ppm ([4]; 4 h, read-out: log reduction after 4 hr): 1 to 2; MBC ([4]; Example 4, read-out: concentration for complete kill of planktonic SRB (not achieved at concentrations as high as)): > 500 µg/mL; solubility [5]: ~50 mg/mL (≈ 373000 µM); MIC [6]: 0.25 mMole %; MIC [7]: 0.25 mMole %; MIC [8]: 0.25 mMole %; MIC [9]: 0.25 mMole %; MIC [10]: 0.25 mMole %

From patent US5128051A, “Method for the control of biofouling” (Union Carbide Chemicals & Plastics Technology Corporation, priority 1991, dated 1992)
